2 compounds from patent US11613729B2, “Cortical spheroids and methods of making the same” (The Florida State University Research Foundation, Inc., priority 2019, dated 2023) can be followed below.

The subject of assay [1] is hybrid spheroids. Kind of assay: MTT assay of hybrid spheroids. The assay is classed as cell-based, human. How it is done: First, an MTT assay was conducted. The spheroids of Examples 2 and 3 were incubated with 5 mg/mL 3-(4,5-Dimethylthiazol-2-yl)-2,5-diphenyltetrazolium bromide (MTT, Sigma) solution at day 7 after three cell types were co-cultured unless otherwise noted. The absorbance of the samples was measured at 500 nm using a microplate reader (Biorad, Richmond, Calif.).
The hMSCs were labeled with CellTracker Green.

Assay [2] deals with hybrid spheroids. Kind of assay: Neurite outgrowth of replated hybrid spheroids. The assay is classed as cell-based, human. The settings on record: ROCKi Y27632 10 μM, day 21 spheroids replated three days. As to the method: Effects of ROCKi Y27632, Geltrex, and HA on neurogenesis of hybrid spheroids were depicted (not shown). Day 21 hybrid spheroids embedded in Geltrex (5%) or treated with ROCKi Y27632 (10 μM) were replated on 1% Geltrex-coated surface for three days. Neurite and axonal extension indicated by β-tubulin III expression was shown. Phase contrast images of axon outgrowth of day 21 spheroids were produced (not shown). Fluorescent images for day 39 spheroids: neuron marker β-tubulin III, motor neuron progenitor marker Islet-1, GABAergic neuron marker (GABA), glutamatergic neuron marker (Glutamate), cortical neuron marker (TBR1), pre-synaptic marker synapsin I and post-synaptic marker PSD95 were produced (not shown).

A further assay concerns iNPC-iEC-MSC spheroids. Kind of assay: Spheroid fusion / aggregation kinetics (squared aspect ratio). The assay is classed as cell-based, human. How it is done:
To form hHA hydrogels, 1% (w/v) HA from Sigma Aldrich solution was reacted with a 5-fold molar excess amount of methacrylic anhydride (MA) from Sigma Aldrich for 15 h in the dark at 4° C. The final product was collected by precipitating the solution in 5-fold volume of ethanol twice, and was then purified by dialysis using a membrane (3.5 kDa Mw cut-off, Thermofisher) to remove unreacted reagents. The purified MA-HA was filtered, lyophilized, and stored at −20° C. until further use. Next, ^1H-NMR spectroscopy (a Bruker 500M spectrometer at […]) was used to analyze and the degree of methacrylation. For culture experiments, day 14 iEC spheroids were transferred to the wells containing day 14 iNPC spheroids, at the same time hMSCs were added into the wells at different ratios (iNPC:iEC:MSC=4:2:0, 3:2:1 2:2:2, and 1:2:3). […] The morphology of hybrid spheroids were captured over 7 days by a phase contrast microscope.
Images of spheroid fusion were captured over time by a phase contrast microscope. The captured images were converted to binary images using ImageJ software (rsb.info.nih.gov/ij) and analyzed with the “particle analysis tool”. Through particle analysis, the squared aspect ratio of contact length between the two aggregates over maximum diameter (FIG. 6A) was determined to indicate the aggregate fusion process. The inter-sphere angle was measured as the intersecting angle between the tangent lines of two contacted spheroids to the touch point. For some experiments, the number of branching points and the total tube length in the area were evaluated.

Method for hMSCs in fused spheroids: The hMSCs were labeled with CellTracker Green. The hybrid (iNPC-iEC-MSC) spheroids were cultured in neural differentiation media (control) or media containing the CXCR4 inhibitor AMD3100 (100 nM, Sigma) for additional 10 days [53]. The fusion kinetics and cell localization were captured over time.

Regarding `c1cc(CN2CCCNCCNCCCNCC2)ccc1CN1CCCNCCNCCCNCC1` [AMD3100], in the assay with hMSCs in fused spheroids (AMD3100 100 nM vs control groups), the “area occupied by hMSCs” value is listed as “smaller than the control groups”. Besides, in the assay with hMSCs in fused spheroids (AMD3100 100 nM, day 4 to day 8), the “aspect ratio of hMSCs (area occupied by hMSCs to total area of fused spheroids)” value is recorded as “decreased from day 4 to day 8”. Besides, the “MTT activity (cell proliferation)” value in the assay on hybrid spheroids [1] (AMD3100 100 nM, day 24 hybrid spheroids) is “little influence on cell proliferation”.
Regarding `C[C@@H](N)[C@H]1CC[C@H](C(=O)Nc2ccncc2)CC1` [Y27632], in the assay on hybrid spheroids [2], the neurite outgrowth entry is reported as “enhanced”. In addition, the MTT activity result in the assay on hybrid spheroids [1] (20 μM ROCKi Y27632, 7 days of tri-culture, vs no treatment) is “increased MTT activity”. The aspect ratio in the assay with iNPC-iEC-MSC spheroids (20 μM or 40 μM ROCKi, plateau over 7 days) is reported as 0.5-0.7. Further, the “tendency of two spheroids to fuse” value with iNPC-iEC-MSC spheroids (high concentration (20 μM or 40 μM)) is “disrupted”. In addition, the “integration of MSCs into iNPC-iEC spheroids” value in the assay on iNPC-iEC-MSC spheroids (low concentration of ROCKi (10 μM)) is given as “did not impact”.
